Measured values as given in patent US9714245B2, “Carboline compounds usable in the treatment of neurodegenerative diseases” (ALZPROTECT, priority 2013, dated 2017).

Key:
secreted Aβ1-40 = experiment: Aβ1-40 secretion by APP-transfected neuroblastoma cells (ELISA); format: cell-based; settings: Homo sapiens, Neuroblastoma cell; SKNSH-SYSY APPWT cells; concentration decreasing secreted Aβ1-40 to 50% of basal amount
Method: (§1) Cell Cultures and Transfections to Test Activity on Aβ1-40 and Aβ1-42 Secretion
(§2) Human neuroblastoma cell line SKNSH-SYSY (ATCC® Catalog No. CRL-2266™), HEK (ATCC® CRL-1573™) and COS-1 (ATCC® CRL-1650™) cells were maintained in Dulbecco's modified Eagle medium (DMEM, GIBCO BRL) supplemented with 10% fetal calf serum, 2 mM L-glutamine, 1 mM non-essential amino acids, 50 units/ml penicillin/streptomycin (Invitrogen, France) in a 5% CO2 humidified incubator at 37° C. APP695 cDNA was subcloned into eukaryotic expression vector pcDNA3 (Invitrogen), allowing for a G418 (Invitrogen) selection of clones. This APP cDNA coding for the 695 amino acid long isoform was transfected into SKNSH-SYSY cells using the ethyleneimine polymer ExGen 500 (Euromedex) according to the manufacturer's instructions. The cells expressing APP (SKNSH-SYSY APP^WT) were selected by the addition of 200 μg/ml G418 in the cell medium. To quantify AR which released in the cell culture medium, the collected medium was spun at 200×g to eliminate the cell debris. The concentrations of secreted Aâ1-40 and Aβ1-42 were determined using the Human Aβ (1-40) Assay Kit (IBL) or the INNOTEST™ beta-Amyloid (1-42) ELISA Kit (Innogenetics), according to manufacturer's instructions. The results were expressed as IC50, i.e. the concentration able to decrease to 50% the basal amount of secreted Aβ peptide 1-40 and 1-42.

secreted Aβ1-42 = experiment: Aβ1-42 secretion by APP-transfected neuroblastoma cells (ELISA); format: cell-based; settings: Homo sapiens, Neuroblastoma cell; SKNSH-SYSY APPWT cells; concentration decreasing secreted Aβ1-42 to 50% of basal amount
Method: as §1, §2

[1] = Cytotoxicity evaluation (MTS assay); format: cell-based, Human; settings: human, SY5Y-APPWT neuroblastoma cells (expressing APP); SY5Y-APPWT cells, 24 h treatment, MTS
Method: Human neuroblastoma cell line SY5Y-APP^WT was used to assess the cytotoxic effects of each compound. SY5Y-APP^WT cells were seeded at 20000 cells/well onto 96-well plates and were cultured in Dulbecco's modified Eagle medium (DMEM, Invitrogen) supplemented with 10% fetal calf serum (PAA), 2 mM L-glutamine (Invitrogen), 1 mM non-essential amino acids (Invitrogen), 50 units/ml penicillin/streptomycin (Invitrogen), and 200 μg G418=geneticin (Invitrogen) (selection for cells expressing APP) in a 5% CO2 humidified incubator at 37° C. After 24 h, the cells were washed and incubated with the compound at 0.1; 0.3; 1; 3; 10; 30 and 100 μM or with DMSO as control diluted in the same culture medium at 37° C. in 5% CO2. After 24 h of treatment, cytotoxicity was determined by using colorimetric MTS assay (CellTiter 96® Aqueous One Solution Cell Proliferation Assay-MTS Promega) according to the protocol of the manufacturer. Absorbance was read at 490 nm and results were expressed as % from control condition considered as 100%.

AICD = experiment: Quantification of AICD by Western blot in SY5Y-APPWT cells; format: cell-based, Human; settings: compared to a control with a value of 100
Method: (§3) Quantifications of APP-CTFs and AICD
(§4) After treatment, SY5Y-APP^WT cells were scrapped and lysed in 1× Lysis Buffer (250 mM NaCl, 50 mM Tris, pH 8.8, 5 mM EDTA, 2.5% Triton X-100, 1% Deoxycholate, 0.1% SDS). For the Western blotting, an equal amount of total proteins (20 μg/lane) was loaded on a 16.5% Tris-Tricine or 8-16% Tris-Glycine polyacrylamide gel.
(§5) SDS-polyacrylamide gel electrophoresis (PAGE) was performed using the Criterion™ Tris-Tricine-precast or Bis-Tris-precast criterion gels (Bio-Rad Bioresearch division). Proteins were transferred to a […] nitrocellulose membrane (Hybond, Amersham Biosciences) at 2.5 mA/cm2 per gel using the Criterion™ Blotter system (Amersham Biosciences), according to the manufacturer's instructions. Proteins were reversibly stained with Ponceau Red in order to check the quality of the transfer of protein. The membranes were blocked in 25 mM Tris-HCl pH 8.0, 150 mM NaCl, 0.1% Tween-20 (v/v) and 5% (w/v) of skimmed milk for 30 min. Membranes were incubated overnight at 4° C. with appropriate dilution of the primary antibodies, and were incubated for 1 h at room temperature with secondary antibody. […] Quantifications were calculated with Image J software (NIH) and the data were collected using Excel Software (Microsoft). The loading variations between Western blot lanes were normalized according to the tubulin signal. Quantification of CTFα and AICD were compared to control conditions (considered as 100 in arbitrary units) and are presented for two concentrations of the drug: 1 and 10 μM.

CTFα = experiment: Quantification of APP-CTFα by Western blot in SY5Y-APPWT cells; format: cell-based, Human; settings: compared to a control with a value of 100
Method: as §3, §4, §5

With `c1ccc2c3c([nH]c2c1)CN(CCCN1CCN(CCN2CCCCC2)CC1)CC3` [Compound 3.2j, 1-[2-(piperidin-1-yl)ethyl]-4-(3-{1H,2H,3H,4H,9H-pyrido[3,4-b]indol-2-yl}propyl)piperazine] the IC50 (secreted Aβ1-40) was 5 µM, the IC50 (secreted Aβ1-42) was 3 µM and the CC50 at 24 h [1] was greater than 100 µM.
In the case of `CC(C)CN(CCCN1CCN(CCCN2CCc3c([nH]c4ccc(Cl)cc34)C2)CC1)CC(C)C` [Compound 3.2b, N,N-diisobutyl-3-{4-[3-(6-chloro-1,3,4,9-tetrahydro-1H-beta-carbolin-2-yl)propyl]piperazin-1-yl}propylamine], the IC50 (secreted Aβ1-42) is reported as greater than 10 µM, the “AICD (10 μM)” value (AICD) is reported as 7417 arbitrary units and the “CTFα (10 μM)” value (CTFα) is reported as 716 arbitrary units. For the same molecule, the CC50 at 24 h [1] was greater than 100 µM.
For `CC(C)CN(CCCN1CCN(CCCN2CCc3[nH]c4ccccc4c3C2)CC1)CC(C)C` [Compound 3.1a, N,N-diisobutyl-3-[4-(3-(1,3,4,5-tetrahydro-1H-pyrido[4,3-b]indol-2-yl)propyl)piperazin-1-yl]propylamine], the IC50 (secreted Aβ1-40) was 1.2 µM, the IC50 (secreted Aβ1-42) was 2.1 µM and the “AICD (10 μM)” value (AICD) was 1081 arbitrary units.
`CC(C)CN(CCCN1CCN(CCCN2CCc3c([nH]c4ccccc34)C2c2ccccc2)CC1)CC(C)C` (stereo not drawn) [Compound 3.2a, N,N-diisobutyl-3-{4-[3-(1-phenyl-1,3,4,9-tetrahydro-1H-beta-carbolin-2-yl)propyl]piperazin-1-yl}propylamine] gave an IC50 (secreted Aβ1-40) of 2 µM and an IC50 (secreted Aβ1-42) of 5 µM.
Molecule `c1ccc2c3c([nH]c2c1)CN(CCCN1CCN(CCCN2CCCCC2)CC1)CC3` [Compound 3.2i, 1-[3-(piperidin-1-yl)propyl]-4-(3-{1H,2H,3H,4H,9H-pyrido[3,4-b]indol-2-yl}propyl)piperazine] has an IC50 (secreted Aβ1-40) of 5 µM, an IC50 (secreted Aβ1-42) of 5 µM and a CC50 at 24 h [1] greater than 100 µM.
In the case of `Fc1ccc2[nH]c3c(c2c1)CN(CCCN1CCN(CCCN(Cc2ccccc2)Cc2ccccc2)CC1)CC3` [Compound 3.1h, N,N-dibenzyl-3-[4-(3-(8-fluoro-1,3,4,5-tetrahydro-1H-pyrido[4,3-b]indol-2-yl)propyl)piperazin-1-yl]propylamine], the IC50 (secreted Aβ1-40) is reported as 2.5 µM, the IC50 (secreted Aβ1-42) is reported as 2.5 µM and the CC50 at 24 h [1] is reported as 4.8 µM.
In the case of `Cc1ccc2[nH]c3c(c2c1)CN(CCCN1CCN(CCCN(CC(C)C)CC(C)C)CC1)CC3` [Compound 3.1c, N,N-diisobutyl-3-[4-(3-(8-methyl-1,3,4,5-tetrahydro-1H-pyrido[4,3-b]indol-2-yl)propyl)piperazin-1-yl]propylamine], the IC50 (secreted Aβ1-40) is reported as 1 µM, the IC50 (secreted Aβ1-42) is reported as 10 µM and the “CTFα (10 μM)” value (CTFα) is reported as 355 arbitrary units. It also gave a CC50 at 24 h [1] of 10 µM.
Work on `COc1ccc2[nH]c3c(c2c1)CN(CCCN1CCN(CCCN2CCCCC2)CC1)CC3` [Compound 3.1i, 3-(4-(3-(8-methoxy-1,3,4,5-tetrahydro-1H-pyrido[4,3-b]indol-2-yl)propyl)piperazin-1-yl)propylpiperidine] yielded an IC50 (secreted Aβ1-40) of 10 µM, an IC50 (secreted Aβ1-42) greater than 10 µM and a CC50 at 24 h [1] greater than 100 µM.
In the case of `COc1ccc2[nH]c3c(c2c1)CN(CCCN1CCN(CCCN(CC(C)C)CC(C)C)CC1)CC3` [Compound 3.1b, N,N-diisobutyl-3-(4-(3-(8-methoxy-1,3,4,5-tetrahydro-1H-pyrido[4,3-b]indol-2-yl)propyl)piperazin-1-yl)propylamine], the “AICD (10 μM)” value (AICD) is reported as 16400 arbitrary units and the CC50 at 24 h [1] is reported as greater than 10 µM.
For `CC(C)CN(CCN1CCN(CCCN2CCc3c([nH]c4ccccc34)C2)CC1)CC(C)C` [Compound 3.2h, N,N-diisobutyl-2-{4-[3-(1,3,4,9-tetrahydro-1H-beta-carbolin-2-yl)propyl]piperazin-1-yl}ethylamine], the IC50 (secreted Aβ1-40) was 3 µM and the IC50 (secreted Aβ1-42) was 3 µM.
`COc1ccc2[nH]c3c(c2c1)CN(CCCN1CCN(CCN(CC(C)C)CC(C)C)CC1)CC3` [Compound 3.1g, N,N-diisobutyl-2-(4-(3-(8-methoxy-1,3,4,5-tetrahydro-1H-pyrido[4,3-b]indol-2-yl)propyl)piperazin-1-yl)ethylamine] showed an IC50 (secreted Aβ1-40) of 2.5 µM and an IC50 (secreted Aβ1-42) of 3.5 µM.
